Counter-ions that a name gives are not always drawn.
biological target: T1, PARP (Mus musculus, UniProt P11103); assay: PARP activity in cultured macrophages, whole-cell based assay (3H-NAD+ incorporation after hydrogen peroxide); conditions: murine RAW macrophages; compound 1 hour prior to hydrogen peroxide (0.5 mM) for 25 minutes; PARP activity by 3H-NAD+
T1 construct: PARP Activity in Cultured Macrophages, Using a Whole-Cell Based Assay; host or cells: murine RAW macrophages
Method: Effect of Indenoisoquinolinone Analogs on PARP Activity in Cultured Macrophages, Using a Whole-Cell Based Assay
The murine RAW macrophages (ATCC, American Type Culture Collection, Manassas, Va.) were grown in RPMI […] (Invitrogen Life Technologies; Carlsbad, Calif.) medium supplemented with 10% heat-inactivated FBS, 2 mM L-glutamine, and 100 U/ml of penicillin and streptomycin. Cells, between passages 5 and 15, were seeded at a density of 250,000 cells/well in 12 well plates and allowed to grow 48 hours before use. Growth medium was changed on the day of use. Cells were treated with an Indenoisoquinolinone Analog diluted in a growth medium supplemented with 10% fetal bovine serum (FBS) for 1 hour prior to the addition of hydrogen peroxide (0.5 mM) for a further 25 minutes. For the measurement of PARP activity, media was removed and replaced with 0.5 ml of the assay buffer (56 mM HEPES-pH 7.5, 28 mM KCl, 28 mM NaCl, 2 mM MgCl2, 0.01% digitonin, and 0.5 μCi/m1 of ^3H-NAD^+) for 20 minutes. After aspirating the assay buffer, cells were lysed and transferred to eppendorf tubes containing 250 μl of 50% ice-cold trichloroacetic acid (TCA), which were then placed at 4° C. for 4 hours. Samples were centrifuged at 10,000 g for 10 minutes and supernatant removed. The pellets were washed twice with 500 μl of ice-cold 5% w/v TCA. The pellets were then solubilized in 250 μl of NaOH (0.1 M) containing 2% SDS overnight at 37° C. and the PARP activity was then determined by measuring the radioactivity incorporated using a Wallac scintillation counter. The solubilized protein (250 μl) was mixed with 5 ml of scintillation fluid (ScintiSafe Plus, Fisher Scientific) before being counted for 3 minutes. EC50 values were determined from a dose-response curve.

T1 sequence (P11103 whole entry): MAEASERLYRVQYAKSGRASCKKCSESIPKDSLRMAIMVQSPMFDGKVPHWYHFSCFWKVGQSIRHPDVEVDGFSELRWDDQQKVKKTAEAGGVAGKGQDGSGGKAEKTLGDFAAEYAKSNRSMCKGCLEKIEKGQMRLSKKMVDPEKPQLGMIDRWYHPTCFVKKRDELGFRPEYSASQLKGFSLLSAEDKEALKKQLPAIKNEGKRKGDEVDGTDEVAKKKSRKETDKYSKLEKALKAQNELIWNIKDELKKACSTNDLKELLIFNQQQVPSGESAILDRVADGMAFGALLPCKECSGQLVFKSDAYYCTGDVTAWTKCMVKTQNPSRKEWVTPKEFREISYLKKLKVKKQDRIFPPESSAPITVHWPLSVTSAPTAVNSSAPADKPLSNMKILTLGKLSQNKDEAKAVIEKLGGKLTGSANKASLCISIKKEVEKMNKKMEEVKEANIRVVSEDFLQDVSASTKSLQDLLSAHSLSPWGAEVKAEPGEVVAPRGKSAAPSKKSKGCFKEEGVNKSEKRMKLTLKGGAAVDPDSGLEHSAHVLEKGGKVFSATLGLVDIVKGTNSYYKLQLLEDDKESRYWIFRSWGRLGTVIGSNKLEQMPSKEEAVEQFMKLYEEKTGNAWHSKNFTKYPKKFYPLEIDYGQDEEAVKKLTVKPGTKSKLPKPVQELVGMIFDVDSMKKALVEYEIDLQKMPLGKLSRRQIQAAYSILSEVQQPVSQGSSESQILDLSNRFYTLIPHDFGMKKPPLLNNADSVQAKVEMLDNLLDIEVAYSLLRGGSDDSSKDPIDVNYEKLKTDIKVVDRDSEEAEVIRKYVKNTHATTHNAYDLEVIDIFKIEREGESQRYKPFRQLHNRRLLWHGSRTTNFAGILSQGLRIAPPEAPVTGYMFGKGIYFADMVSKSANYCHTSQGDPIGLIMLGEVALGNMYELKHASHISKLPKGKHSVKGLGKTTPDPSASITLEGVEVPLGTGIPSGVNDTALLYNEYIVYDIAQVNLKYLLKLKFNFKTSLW

Row | SMILES | EC50 [nM]
1 | O=c1[nH]c2c(c3ccccc13)Cc1cc(CN3CCN(CC4CC4)CC3)ccc1-2 [Dihydrochloride salt of IIIb-3, 9-[1-(4-Cyclopropylmethylpiperazino)methyl]-5,6-dihydro-5-oxo-11-H-indeno[1,2-c]isoquinoline dihydrochloride] | 10
2 | O=c1[nH]c2c(c3ccccc13)Cc1cc(CN3CCN(C4CCCCC4)CC3)ccc1-2 [Dihydrochloride salt of IIIb-14, 9-[1-(4-Cyclohexylpiperazino)methyl]-5,6-dihydro-5-oxo-11-H-indeno[1,2-c]isoquinoline dihydrochloride] | 20
3 | CC(C)N1CCN(Cc2cccc3c2Cc2c-3[nH]c(=O)c3ccccc23)CC1 [IIIa-1, 10-[1-(4-iso-Propylpiperazino)methyl]-5,6-dihydro-5-oxo-11-H-indeno[1,2-c]isoquinoline] | 45
4 | CCCCN1CCN(Cc2cccc3c2Cc2c-3[nH]c(=O)c3ccccc23)CC1 [IIIa-2, 10-[1-(4-Butylpiperazino)methyl]-5,6-dihydro-5-oxo-11-H-indeno[1,2-c]isoquinoline] | 25
5 | O=c1[nH]c2c(c3ccccc13)Cc1c(CN3CCN(CC4CC4)CC3)cccc1-2 [IIIa-3, 10-[1-(4-Cyclopropylmethylpiperazino)methyl]-5,6-dihydro-5-oxo-11-H-indeno[1,2-c]isoquinoline] | 20
6 | O=c1[nH]c2c(c3ccccc13)Cc1c(CN3CCN(c4ncccn4)CC3)cccc1-2 [IIIa-8, 10-{1-[4-(2-Pyrimidyl)piperazino]methyl}-5,6-dihydro-5-oxo-11-H-indeno[1,2-c]isoquinoline] | 75
7 | O=c1[nH]c2c(c3ccccc13)Cc1c(CN3CC[C@H](F)C3)cccc1-2 [IIIa-11, 10-[S-(3-Fluoropyrrolidino)methyl]-5,6-dihydro-5-oxo-11-H-indeno[1,2-c]isoquinoline] | 12
8 | O=c1[nH]c2c(c3ccccc13)Cc1c(CN3CC=CCC3)cccc1-2 [IIIa-12, 10-[(3,4-Dehydropiperidino)methyl]-5,6-dihydro-5-oxo-11-H-indeno[1,2-c]isoquinoline] | 7
9 | O=c1[nH]c2c(c3ccccc13)Cc1cc(CN3CCN(c4ncccn4)CC3)ccc1-2 [IIIb-8, 9-{1-[4-(2-Pyrimidyl)piperazino]methyl}-5,6-dihydro-5-oxo-11-H-indeno[1,2-c]isoquinoline] | 75
10 | O=c1[nH]c2c(c3ccccc13)Cc1cc(CN3CCN(C4CCCC4)CC3)ccc1-2 [IIIb-9, 9-[1-(4-Cyclopentylpiperazino)methyl]-5,6-dihydro-5-oxo-11-H-indeno[1,2-c]isoquinoline dihydrochloride] | 20
11 | CN1CCCN(Cc2ccc3c(c2)Cc2c-3[nH]c(=O)c3ccccc23)CC1 [IIIb-13, 9-[1-(4-Methylhomopiperazino)methyl]-5,6-dihydro-5-oxo-11-H-indeno[1,2-c]isoquinoline] | 25
12 | CC(C)(C)OC(=O)N1CCN(Cc2ccc3c(c2)Cc2c-3[nH]c(=O)c3ccccc23)CC1 [IIIb-16, 9-[(4-tert-Butoxycarbonyl-piperazino)methyl]-5,6-dihydro-5-oxo-11-H-indeno[1,2-c]isoquinoline] | > 100
13 | CN(CCN1CCOCC1)Cc1ccc2c(c1)Cc1c-2[nH]c(=O)c2ccccc12 [IIIb-19] | 30
14 | O=c1[nH]c2c(c3ccccc13)Cc1cc(CN3CCCCCC3)ccc1-2 [IIIb-22, 9-(1-Homopiperidinomethyl)-5,6-dihydro-5-oxo-11-H-indeno[1,2-c]isoquinoline] | > 100
15 | C[C@@H]1CN(Cc2ccc3c(c2)Cc2c-3[nH]c(=O)c3ccccc23)C[C@H](C)N1 [IIIb-24, 9-[1-(3,5-Dimethylpiperazino)methyl]-5,6-dihydro-5-oxo-11-H-indeno[1,2-c]isoquinoline] | > 60
16 | C=CCN1CCN(Cc2cccc3c2Cc2c-3[nH]c(=O)c3ccccc23)CC1 [IIa-1, 10-[1-(4-Allylpiperazino)methyl]-5,6-dihydro-5-oxo-11-H-indeno[1,2-c]isoquinoline] | 20
17 | O=c1[nH]c2c(c3ccccc13)Cc1c(CN3CCC4(CC3)OCCO4)cccc1-2 [IIa-14, 10-[(4,4-Ethylenedioxy-piperidino)methyl]-5,6-dihydro-5-oxo-11-H-indeno[1,2-c]isoquinoline] | 30
18 | CCC(C)n1c2cc(CN3CCC4(CC3)OCCO4)ccc2c2[nH]c(=O)c3ccccc3c21 (centres unmarked) [IIb-23] | 80
19 | N#CCCN1CCN(Cc2ccc3c(c2)Cc2c-3[nH]c(=O)c3ccccc23)CC1 [IIb-66, 9-{1-[4-(2-Cyanoethyl)piperazino]methyl}-5,6-dihydro-5-oxo-11-H-indeno[1,2-c]isoquinoline] | 45
20 | CC(C)(C)OC(=O)N1CCC(N(Cc2ccc3c(c2)Cc2c-3[nH]c(=O)c3ccccc23)C2CC2)CC1 [IIb-79, 9-{N-[4-(1-Boc-piperidyl)]-N-cyclopropylaminomethyl}-5,6-dihydro-5-oxo-11-H-indeno[1,2-c]isoquinoline] | > 60
21 | CC(C)(C)OC(=O)N1CCC(NCc2ccc3c(c2)Cc2c-3[nH]c(=O)c3ccccc23)CC1 [IIb-92, 9-{N-[4-(1-Boc-piperidyl)]aminomethyl}-5,6-dihydro-5-oxo-11-H-indeno[1,2-c]isoquinoline] | > 60
22 | O=C(CN1CCN(Cc2ccc3c(c2)Cc2c-3[nH]c(=O)c3ccccc23)CC1)N1CCCC1 [IIb-157, 9-{1-[4-(1-Pyrrolidinocarbonylmethyl)piperazino]methyl}-5,6-dihydro-5-oxo-11-H-indeno[1,2-c] isoquinoline] | 75
23 | O=C(C1CC1)N1CCN(Cc2ccc3c(c2)Cc2c-3[nH]c(=O)c3ccccc23)CC1 [IIb-170, 9-{1-[4-(Cyclopropylcarbonyl)piperazino]methyl}-5,6-dihydro-5-oxo-11-H-indeno[1,2-c]isoquinoline] | 75
24 | O=c1[nH]c2c(c3ccccc13)Cc1cc(CN3CCC(F)(F)CC3)ccc1-2 [Methylsulfonate salt of IIIb-15, 9-[1-(4,4-Difluoropiperidino)methyl]-5,6-dihydro-5-oxo-11-H-indeno[1,2-c]isoquinoline methylsulfonate] | 55

Second part, the compound after the results:

Row | EC50 [nM] | SMILES
25 | 15 | O=c1[nH]c2c(c3ccccc13)Cc1c(CNCCCO)cccc1-2 [IIIa-4, 10-[N-1-(3-Hydroxypropyl)aminomethyl]-5,6-dihydro-5-oxo-11-H-indeno[1,2-c]isoquinoline]
26 | 40 | O=c1[nH]c2c(c3ccccc13)Cc1c(CNCCN3CCCC3)cccc1-2 [IIIa-5, 10-[N-(2-Pyrollidinoethyl)aminomethyl}-5,6-dihydro-5-oxo-11-H-indeno[1,2-c]isoquinoline]
27 | 20 | CC(C)N1CCN(Cc2ccc3c(c2)Cc2c-3[nH]c(=O)c3ccccc23)CC1 [IIIb-1, 9-[1-(4-iso-Propylpiperazino)methyl]-5,6-dihydro-5-oxo-11-H-indeno[1,2-c]isoquinoline]
28 | 25 | CCCCN1CCN(Cc2ccc3c(c2)Cc2c-3[nH]c(=O)c3ccccc23)CC1 [IIIb-2, 9-[1-(4-Butylpiperazino)methyl]-5,6-dihydro-5-oxo-11-H-indeno[1,2-c]isoquinoline]
29 | 75 | CCOCCN1CCN(Cc2ccc3c(c2)Cc2c-3[nH]c(=O)c3ccccc23)CC1 [IIIb-10, 9-{1-[4-(2-Ethoxyethyl)piperazino]methyl}-5,6-dihydro-5-oxo-11-H-indeno[1,2-c]isoquinoline]
30 | 75 | CC(C)(O)CN1CCN(Cc2ccc3c(c2)Cc2c-3[nH]c(=O)c3ccccc23)CC1 [IIIb-18, 9-[4-(2-Hydroxy-2-methyl-propyl-piperazino)methyl]-5,6-dihydro-5-oxo-11-H-indeno[1,2-c]isoquinoline dihydrochloride]
31 | < 10 | O=c1[nH]c2c(c3ccccc13)Cc1c(CNC3(CO)CCCC3)cccc1-2 [IIa-27, 10-{N-[1-(Hydroxymethyl)cyclopentyl]aminomethyl}-5,6-dihydro-5-oxo-11-H-indeno[1,2-c]isoquinoline]
32 | 45 | C=CCN1CCN(Cc2ccc3c(c2)Cc2c-3[nH]c(=O)c3ccccc23)CC1 [IIb-1, 9-[1-(4-Allylpiperazino)methyl]-5,6-dihydro-5-oxo-11-H-indeno[1,2-c]isoquinoline]
33 | 60 | CCC(=O)N1CCCN(Cc2ccc3c(c2)Cc2c-3[nH]c(=O)c3ccccc23)CC1 [IIb-118, 9-[(4-Propionyl-homopiperazino)methyl]-5,6-dihydro-5-oxo-11-H-indeno[1,2-c]isoquinoline hydrochloride]
34 | 75 | CCOC(CN1CCN(Cc2ccc3c(c2)Cc2c-3[nH]c(=O)c3ccccc23)CC1)OCC [IIb-196, 9-{1-[4-(2,2-Diethoxyethyl)piperazino]methyl}-5,6-dihydro-5-oxo-11-H-indeno[1,2-c]isoquinoline]
35 | > 100 | O=c1[nH]c2c(c3cccc(Cl)c13)Cc1c(CNC3CCCC3)cccc1-2 [Va-1, 4-chloro-10-((cyclopentylamino)methyl)-6,11-dihydro-5H-indeno[1,2-c]isoquinolin-5-one]
